Test system: BaF3-FL KIT D816V or BaF3-FL KIT V560G/D816V cell line
Assay: Cell-based assays of c-Kit mutant kinase activity (cell growth, ATPlite)
Settings: at least one of the c-kit cell assays of Example 26
Method: The c-Kit mutant D816V inhibitors were assessed using an engineered BaF3-FL KIT D816V or BaF3-FL KIT V560G/D816V cell line. The BaF3-FL KIT D816V cell lines were created by introduction of KIT mutant (D816V) full length constructs that render the cells dependent on the introduced kinase for growth. Inhibitors of c-Kit mutant D816V kinase reduce or eliminate the mediated c-kit mutant D816V kinase activation, resulting in reduced cell proliferation of the BaF3-FL Kit mutant D816V cells. This inhibition is measured by the effect of compound concentration on cell growth to assess IC50 values. BaF3-FL KIT D816V cells were seeded at 1×10^4 cells per well of a 96 well cell culture plate in 50 μl of cell culture medium of RPMI Medium 1X (Invitrogen #11875-093) supplemented with 10% FBS (Invitrogen #10438), 1% Non Essential Amino Acids(Invitrogen #11140), 1% Penicillin Streptomycin (Invitrogen #15140), 1% L-Glutamine (Invitrogen #25030-081). Compounds were dissolved in DMSO at a concentration of 5 mM and were serially diluted 1:3 for a total of eight points and added to the cells to a final maximum concentration of 10 μM in 100 μl cell culture medium (final concentration 0.2% DMSO). Cells were also treated with Dasatinib as a positive control. The cells were incubated at 37° C., 5% CO2 for three days. ATPlite Buffer (Perkin Elmer #6016739) and substrate were equilibrated to room temperature, and enzyme/substrate Recombinant Firefly Luciferase/D-Luciferin was reconstituted. The cell plates were equilibrated to room temperature for 30 minutes, then lysed by addition of 25 uL per well of the ATPlite Reagent. The plate was mixed for 5 minutes on a plate shaker to lyse the cells. The plates were read on a Tecan Safire using Luminescence protocol modified to read 0.1 s per well. The luminescence reading assesses the ATP content, which correlates directly with cell number such that the reading as a function of compound concentration is used to determine the IC50 value.
Plasmids P75635 and P75565 were engineered for mammalian cell expression. In both plasmids, full-length human v-kit Hardy-Zuckerman 4 feline sarcoma viral oncogene homolog gene (NCBI accession NM_000222, KIT, residues M1-V976) was subcloned into the pCI-Neo vector (Promega E1841). Plasmid P75635 contains the mutation of residue Aspartic acid 816 to Valine. Plasmid P75565 contains the double mutation of residues Valine 560 to Glycine and Aspartic acid 816 to Valine. The pCI-neo Mammalian Expression Vector carries the human cytomegalovirus (CMV) immediate-early enhancer/promoter region to promote constitutive expression of KIT and contains the neomycin phosphotransferase gene, a selectable marker.
It is understood that the results of these assays may vary as assay conditions are varied. Inhibition levels determined under the conditions described herein represent a relative activity for the compounds tested under the specific conditions employed. The cell based assays are likely to show variability due to the complexity of the system and the sensitivity thereof to any changes in the assay conditions. […] In some instances, the compounds were not tested in all of the assays, or assay results were not valid.

Row | SMILES | IC50
1 | OC(c1cccnc1)c1cnc2[nH]c(-c3ccccc3)cc2c1 (centres unmarked) [P-2001, (2-phenyl-1H-pyrrolo[2,3-b]pyridin-5-yl)-(3-pyridyl)methanol] | < 10 µM
2 | O=C(c1cccnc1)c1cnc2[nH]c(-c3ccccc3)cc2c1 [P-2002, (2-phenyl-1H-pyrrolo[2,3-b]pyridin-5-yl)-(3-pyridyl)methanone] | < 10 µM
3 | O=C(Nc1cc[nH]n1)c1cnc2[nH]c(-c3ccccc3)cc2c1 [P-2004, 2-phenyl-N-(1H-pyrazol-3-yl)-1H-pyrrolo[2,3-b]pyridine-5-carboxamide] | < 10 µM
4 | CCOC(=O)CCNC(=O)Nc1cnc2[nH]c(-c3ccccc3)cc2c1 [P-2006] | < 10 µM
5 | Cc1c(-c2ccccc2)n[nH]c1C(=O)Nc1cnc2[nH]c(-c3ccccc3)cc2c1 [P-2008, 4-methyl-3-phenyl-N-(2-phenyl-1H-pyrrolo[2,3-b]pyridin-5-yl)-1H-pyrazole-5-carboxamide] | < 10 µM
6 | O=C(Nc1cnc2[nH]c(-c3ccccc3)cc2c1)c1cccnn1 [P-2014, N-(2-phenyl-1H-pyrrolo[2,3-b]pyridin-5-yl)pyridazine-3-carboxamide] | < 10 µM
7 | Cc1cccc(Cl)c1C(=O)Nc1cnc2[nH]c(-c3ccc(F)cc3)cc2c1 [P-2022, 2-chloro-N-[2-(4-fluorophenyl)-1H-pyrrolo[2,3-b]pyridin-5-yl]-6-methyl-benzamide] | < 10 µM
8 | CCc1n[nH]c(C(=O)Nc2cnc3[nH]c(-c4ccc(F)cc4)cc3c2)c1C [P-2028, 3-ethyl-N-[2-(4-fluorophenyl)-1H-pyrrolo[2,3-b]pyridin-5-yl]-4-methyl-1H-pyrazole-5-carboxamide] | < 10 µM
9 | O=C(Nc1cnc2[nH]c(-c3ccc(F)cc3)cc2c1)c1ncn[nH]1 [P-2035, N-[2-(4-fluorophenyl)-1H-pyrrolo[2,3-b]pyridin-5-yl]-1H-1,2,4-triazole-5-carboxamide] | < 10 µM
10 | Cc1n[nH]c(C(=O)Nc2cnc3[nH]c(-c4ccnc(N5CCOCC5)c4F)cc3c2)c1C [P-2082, N-[2-(3-fluoro-2-morpholino-4-pyridyl)-1H-pyrrolo[2,3-b]pyridin-5-yl]-3,4-dimethyl-1H-pyrazole-5-carboxamide] | < 10 µM
11 | Cc1n[nH]c(C(=O)Nc2cnc3[nH]c(-c4cnn(CC(C)C)c4)cc3c2)c1C [P-2083, N-[2-(1-isobutylpyrazol-4-yl)-1H-pyrrolo[2,3-b]pyridin-5-yl]-3,4-dimethyl-1H-pyrazole-5-carboxamide] | < 10 µM
12 | Cc1n[nH]c(C(=O)Nc2cnc3[nH]c(-c4cnn(C)c4C)cc3c2)c1C [P-2084, N-[2-(1,5-dimethylpyrazol-4-yl)-1H-pyrrolo[2,3-b]pyridin-5-yl]-3,4-dimethyl-1H-pyrazole-5-carboxamide] | < 10 µM
13 | Cc1n[nH]c(C(=O)Nc2cnc3[nH]c(-c4ccc(C(=O)N(C)C)cc4)cc3c2)c1C [P-2085, N-[2-[4-(dimethylcarbamoyl)phenyl]-1H-pyrrolo[2,3-b]pyridin-5-yl]-3,4-dimethyl-1H-pyrazole-5-carboxamide] | < 10 µM
14 | Cc1n[nH]c(C(=O)Nc2cnc3[nH]c(-c4cccc(OC(F)(F)F)c4)cc3c2)c1C [P-2086, 3,4-dimethyl-N-[2-[3-(trifluoromethoxy)phenyl]-1H-pyrrolo[2,3-b]pyridin-5-yl]-1H-pyrazole-5-carboxamide] | < 10 µM
15 | Cc1n[nH]c(C(=O)Nc2cnc3[nH]c(-c4cccc(C(=O)N(C)C)c4)cc3c2)c1C [P-2087, N-[2-[3-(dimethylcarbamoyl)phenyl]-1H-pyrrolo[2,3-b]pyridin-5-yl]-3,4-dimethyl-1H-pyrazole-5-carboxamide] | < 10 µM
16 | Cc1n[nH]c(C(=O)Nc2cnc3[nH]c(-c4cccnc4)cc3c2)c1C [P-2088, 3,4-dimethyl-N-[2-(3-pyridyl)-1H-pyrrolo[2,3-b]pyridin-5-yl]-1H-pyrazole-5-carboxamide] | < 10 µM
17 | Cc1n[nH]c(C(=O)Nc2cnc3[nH]c(-c4ccc(N5CCOCC5)nc4)cc3c2)c1C [P-2089, 3,4-dimethyl-N-[2-(6-morpholino-3-pyridyl)-1H-pyrrolo[2,3-b]pyridin-5-yl]-1H-pyrazole-5-carboxamide] | < 10 µM
18 | COc1ccc(-c2cc3cc(NC(=O)c4[nH]nc(C)c4C)cnc3[nH]2)cn1 [P-2090, N-[2-(6-methoxy-3-pyridyl)-1H-pyrrolo[2,3-b]pyridin-5-yl]-3,4-dimethyl-1H-pyrazole-5-carboxamide] | < 10 µM
19 | Cc1ncc(-c2cc3cc(NC(=O)c4[nH]nc(C)c4C)cnc3[nH]2)s1 [P-2091, 3,4-dimethyl-N-[2-(2-methylthiazol-5-yl)-1H-pyrrolo[2,3-b]pyridin-5-yl]-1H-pyrazole-5-carboxamide] | < 10 µM
20 | Cc1n[nH]c(C(=O)Nc2cnc3[nH]c(-c4ccc(C#N)cc4)cc3c2)c1C [P-2092, N-[2-(4-cyanophenyl)-1H-pyrrolo[2,3-b]pyridin-5-yl]-3,4-dimethyl-1H-pyrazole-5-carboxamide] | < 10 µM
21 | Cc1n[nH]c(C(=O)Nc2cnc3[nH]c(-c4ccccc4F)cc3c2)c1C [P-2093, N-[2-(2-fluorophenyl)-1H-pyrrolo[2,3-b]pyridin-5-yl]-3,4-dimethyl-1H-pyrazole-5-carboxamide] | < 10 µM
22 | Cc1n[nH]c(C(=O)Nc2cnc3[nH]c(-c4cccc(F)c4)cc3c2)c1C [P-2094, N-[2-(3-fluorophenyl)-1H-pyrrolo[2,3-b]pyridin-5-yl]-3,4-dimethyl-1H-pyrazole-5-carboxamide] | < 10 µM
23 | Cc1n[nH]c(C(=O)Nc2cnc3[nH]c(-c4cccc(Cl)c4)cc3c2)c1C [P-2095, N-[2-(3-chlorophenyl)-1H-pyrrolo[2,3-b]pyridin-5-yl]-3,4-dimethyl-1H-pyrazole-5-carboxamide] | < 10 µM
24 | Cc1n[nH]c(C(=O)Nc2cnc3[nH]c(-c4ccccc4Cl)cc3c2)c1C [P-2096, N-[2-(2-chlorophenyl)-1H-pyrrolo[2,3-b]pyridin-5-yl]-3,4-dimethyl-1H-pyrazole-5-carboxamide] | < 10 µM
25 | Cc1ccccc1-c1cc2cc(NC(=O)c3[nH]nc(C)c3C)cnc2[nH]1 [P-2097, 3,4-dimethyl-N-[2-(o-tolyl)-1H-pyrrolo[2,3-b]pyridin-5-yl]-1H-pyrazole-5-carboxamide] | < 10 µM
26 | COc1cccc(-c2cc3cc(NC(=O)c4[nH]nc(C)c4C)cnc3[nH]2)c1 [P-2098, N-[2-(3-methoxyphenyl)-1H-pyrrolo[2,3-b]pyridin-5-yl]-3,4-dimethyl-1H-pyrazole-5-carboxamide] | < 10 µM
27 | COc1ccc(-c2cc3cc(NC(=O)c4[nH]nc(C)c4C)cnc3[nH]2)cc1 [P-2099, N-[2-(4-methoxyphenyl)-1H-pyrrolo[2,3-b]pyridin-5-yl]-3,4-dimethyl-1H-pyrazole-5-carboxamide] | < 10 µM
28 | CC(=O)Nc1cccc(-c2cc3cc(NC(=O)c4[nH]nc(C)c4C)cnc3[nH]2)c1 [P-2100, N-[2-(3-acetamidophenyl)-1H-pyrrolo[2,3-b]pyridin-5-yl]-3,4-dimethyl-1H-pyrazole-5-carboxamide] | < 10 µM
29 | Cc1n[nH]c(C(=O)Nc2cnc3[nH]c(-c4ccc(C(=O)N5CCCC5)cc4)cc3c2)c1C [P-2101, 3,4-dimethyl-N-[2-[4-(pyrrolidine-1-carbonyl)phenyl]-1H-pyrrolo[2,3-b]pyridin-5-yl]-1H-pyrazole-5-carboxamide] | < 10 µM

From US10301280B2 (Plexxikon Inc., priority 2012, dated 2019)
